# Test results as given in article PMC4104029, “Mechanism of Action of Compound-13: An α1-Selective Small Molecule Activator of AMPK” (Chemistry & Biology, 2014).
# Experiments:
# [1] = test system: adenylate kinase; experiment: Adenylate kinase assay; type: biochemical; settings: concentrations up to 100 μM; data not shown
# Description: Additional enzyme assays. Glycogen phosphorylase (EC 2.4.1.1) was assayed in the physiological direction in reactions containing 20 mM BES pH 6.8, 20 mM phosphate, 1 mM NADP+, 0.5 mM MgCl2, 0.1 % glycogen, 4 µM glucose-1,6-bisphosphate, 0.5 mM DTT, 0.025 % BSA, 0.6 U/ml phosphoglucomutase and 3 U/ml glucose-6-phosphate dehydrogenase (G6PDH). FBP1 (EC 3.1.3.11) was assayed in reactions containing 50 mM TES pH 7.4, 0.1 […]
# mM 2-mercaptoethanol, 25 µM fructose-1,6-bisphosphate, 0.8 U/ml phosphoglucoisomerase and 0.5 U/ml G6PDH. PFK1 (EC 2.7.1.11) was assayed in reactions containing 50 mM TES pH 7.4, 2 mM MgCl2, 0.05 % BSA, 2 mM 2-mercaptoethanol, 0.5 mM fructose-6-phosphate, 1 mM ATP, 0.2 mM NADH, 0.5 U/ml aldolase, 15 U/ml triosephosphate isomerase and 2 U/ml α-glycerophosphate dehydrogenase. […] All assays were performed in a final volume of 250 µl and were monitored by changes in fluorescence (FBP1 - λex 340nm, λem 450nm) or A340. […] Liberated phosphate was determined using malachite green reagent. […] The formation of pyrophosphate (PPi) was monitored by reduction of PPi-molybdate complexes using 2-mercaptoethanol and Fiske-Subbarow reducer (Kuang, et al., 2007). […]
# Tricistronic expression vectors were constructed using a strategy inspired by Neumann et al (Neumann, et al., 2003). […] The open reading frame of AMPKα1 and AMPKα2 was inserted after the 6×His tag as a Bamh1-Not1 fragment. […]
# [2] = target: T1, AMPKα1 complexes in primary hepatocytes (Mus musculus, UniProt O54950+Q5EG47); experiment: Isoform-specific immunoprecipitate kinase assay from hepatocytes; type: cell-based; settings: 1 hr; washed immunoprecipitates
# T1 construct: AMPKα1 or AMPKα2 complexes were immunoprecipitated from hepatocyte extracts; endogenous in cells; host or cells: primary mouse hepatocytes
# T1 sequence (Q5EG47 whole entry, canonical isoform): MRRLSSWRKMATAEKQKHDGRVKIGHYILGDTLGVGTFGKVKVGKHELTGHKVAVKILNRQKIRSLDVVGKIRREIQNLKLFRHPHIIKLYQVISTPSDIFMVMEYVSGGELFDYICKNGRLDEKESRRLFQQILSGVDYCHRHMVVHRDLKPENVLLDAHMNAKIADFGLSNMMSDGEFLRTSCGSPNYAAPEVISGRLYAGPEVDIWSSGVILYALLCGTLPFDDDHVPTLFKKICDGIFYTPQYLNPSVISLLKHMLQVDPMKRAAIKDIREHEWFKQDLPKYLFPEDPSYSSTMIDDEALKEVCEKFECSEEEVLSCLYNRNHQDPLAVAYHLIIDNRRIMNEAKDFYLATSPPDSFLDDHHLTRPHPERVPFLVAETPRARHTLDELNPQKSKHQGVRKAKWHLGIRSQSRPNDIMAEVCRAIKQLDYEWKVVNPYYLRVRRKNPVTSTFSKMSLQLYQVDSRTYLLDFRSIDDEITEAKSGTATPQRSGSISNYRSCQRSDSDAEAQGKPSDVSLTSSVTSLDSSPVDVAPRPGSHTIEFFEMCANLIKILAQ
# T1 sequence (Q9R078 2-270 partner limits assumed): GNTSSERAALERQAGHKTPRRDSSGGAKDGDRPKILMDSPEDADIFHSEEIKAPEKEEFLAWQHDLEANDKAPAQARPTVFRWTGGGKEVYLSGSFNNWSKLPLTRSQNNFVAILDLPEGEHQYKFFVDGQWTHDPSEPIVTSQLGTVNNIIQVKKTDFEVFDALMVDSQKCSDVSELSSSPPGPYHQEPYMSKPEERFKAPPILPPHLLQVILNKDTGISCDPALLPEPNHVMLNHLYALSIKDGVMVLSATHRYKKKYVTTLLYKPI
# T1 sequence (O54950 whole entry, canonical isoform): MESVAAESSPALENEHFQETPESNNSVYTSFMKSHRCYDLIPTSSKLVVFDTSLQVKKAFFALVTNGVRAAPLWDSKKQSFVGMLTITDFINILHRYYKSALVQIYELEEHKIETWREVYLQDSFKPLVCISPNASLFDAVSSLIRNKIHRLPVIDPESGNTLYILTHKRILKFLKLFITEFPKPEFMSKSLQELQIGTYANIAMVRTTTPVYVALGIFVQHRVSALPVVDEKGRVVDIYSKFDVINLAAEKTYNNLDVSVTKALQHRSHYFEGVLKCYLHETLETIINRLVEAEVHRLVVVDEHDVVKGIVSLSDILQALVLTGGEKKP
# Description: (§1) Figure 4 The C2 Prodrug, C13, Potently Activates AMPK in Mouse Primary Hepatocytes (A) Isolated mouse hepatocytes were incubated with vehicle or the indicated concentrations of C13 for 1 hr. AICAR (0.5 mM) was included as a positive control. Cell lysates were analyzed using western blotting with the indicated antibodies. (B) AMPKα1 or AMPKα2 complexes were immunoprecipitated from hepatocyte extracts prepared as described in (A) and assayed for kinase activity using 0.2 mM AMARA and 0.1 mM ATP. Results are expressed as the mean Pi incorporated in picomoles per minute-milligram ± SD. […] Lysates were analyzed using western blotting with the indicated antibodies. (D) Mouse hepatocytes were treated with the indicated compounds for 1 hr, and adenine nucleotide ratios were determined using capillary electrophoresis of perchloric acid extracts. […] Lysates were analyzed using western blotting with the indicated antibodies. […] Lysates were analyzed using western blotting with the indicated antibodies. […]
# (§2) AMPK phosphotransferase activity was assayed in reactions (50 μl) containing 50 mM HEPES, pH 7.4, 10 mM MgCl2, 0.1 mM EGTA, 1 mM DTT, 0.01% BRIJ-35, 100 μM [γ-^32P]ATP (∼250 CPM⋅pmol^−1) and 200 μM AMARA (AMARAASAAALARRR). […] Washed filters were dried and [^32P] incorporation determined by Cherenkov counting. […]
# [3] = target: T2, AMPKα2 complexes in primary hepatocytes (Mus musculus, UniProt O54950+Q8BRK8); experiment: as above; type: cell-based; settings: 1 hr; washed immunoprecipitates
# T2 construct: AMPKα1 or AMPKα2 complexes were immunoprecipitated from hepatocyte extracts; endogenous in cells; host or cells: primary mouse hepatocytes
# T2 sequence (Q8BRK8 whole entry): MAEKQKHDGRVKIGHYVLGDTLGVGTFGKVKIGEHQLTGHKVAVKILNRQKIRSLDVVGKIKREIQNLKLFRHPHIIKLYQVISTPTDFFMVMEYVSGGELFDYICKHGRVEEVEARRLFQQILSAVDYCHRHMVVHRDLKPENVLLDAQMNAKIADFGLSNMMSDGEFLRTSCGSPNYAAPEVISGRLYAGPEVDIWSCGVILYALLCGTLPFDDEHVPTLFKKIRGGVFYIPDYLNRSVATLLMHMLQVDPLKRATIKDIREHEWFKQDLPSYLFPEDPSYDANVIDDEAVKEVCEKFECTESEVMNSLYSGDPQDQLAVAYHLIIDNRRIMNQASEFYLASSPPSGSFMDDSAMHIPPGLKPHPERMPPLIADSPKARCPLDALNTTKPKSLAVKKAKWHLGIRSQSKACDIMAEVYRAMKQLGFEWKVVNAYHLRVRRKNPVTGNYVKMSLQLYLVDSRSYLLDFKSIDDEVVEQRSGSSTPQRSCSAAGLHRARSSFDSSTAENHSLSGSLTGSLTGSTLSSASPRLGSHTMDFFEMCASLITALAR
# T2 sequence (Q9R078 2-270 partner limits assumed): as the sequence (Q9R078 2-270 partner limits assumed) above
# T2 sequence (O54950 whole entry): as the sequence (O54950 whole entry, canonical isoform) above
# Description: as §1, §2
SMILES,effect on enzyme activity [1],concentration at which complexes were stimulated [2] [µM],concentration above which activation was evident [3]
"O=P(O)(O)c1ccc(-c2cc(O)on2)o1 [Compound C2, 5-(5-hydroxyl-isoxazol-3-yl)-furan-2-phosphonic acid]",None of these enzymes were affected,–,–
CC(C)C(=O)OCOP(=O)(OCOC(=O)C(C)C)c1ccc(C2=NOC(=O)C2)o1 [Compound C13],–,3,above 30 μM
